In PubChem BioAssay AID180 (DTP/NCI, 2004) one finds T/C data, which are given here for 15 molecules.

Each structure is given as a SMILES string. Values joined by “and” are separate entries in the source; they are usually repeats but may differ in a detail not shown here. Equal entries are not always repeated.

This assay deals with BDF1 mice, Adenocarcinoma 755 s.c., tumor weight T/C. The assay can be described thus: NCI In Vivo Anticancer Drug Screen. Data for tumor model Adenocarcinoma 755 (subcutaneous) in B6D2F1 (BDF1) mice. As to conditions: endpoint: mean tumor weight, schedule: Q01DX011 (ip), higher = larger tumour. In outline: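 Transplantable tumor implanted; mice dosed with compound or vehicle; survival or tumor size recorded; ratio of treated to vehicle control reported.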

Setting [1] is: dose: 15.0 mg/kg/injection, vehicle: methylcellulose (MC).
[2] abbreviates: dose: 31.0 mg/kg/injection, vehicle: methylcellulose (MC).
Where [3] appears, read: dose: 62.0 mg/kg/injection, vehicle: methylcellulose (MC).
The mark [4] stands for this setting: dose: 125.0 mg/kg/injection, vehicle: methylcellulose (MC).
The mark [5] stands for this setting: dose: 250.0 mg/kg/injection, vehicle: methylcellulose (MC).
[6] abbreviates: dose: 100.0 mg/kg/injection, vehicle: methylcellulose (MC).
The mark [7] stands for this setting: dose: 300.0 mg/kg/injection, vehicle: methylcellulose (MC).
The mark [8] stands for this setting: dose: 25.0 mg/kg/injection, vehicle: carboxymethylcellulose (CMC).
Setting [9] is: dose: 50.0 mg/kg/injection, vehicle: carboxymethylcellulose (CMC).
[10] abbreviates: dose: 100.0 mg/kg/injection, vehicle: carboxymethylcellulose (CMC).
The mark [11] stands for this setting: dose: 200.0 mg/kg/injection, vehicle: carboxymethylcellulose (CMC).
Setting [12] is: dose: 400.0 mg/kg/injection, vehicle: carboxymethylcellulose (CMC).

By T/C is commonly meant the ratio of treated to control.

For the molecule `O=C(Nc1ccc(NC(=O)Nc2cccc(C3=NCCN3)c2)cc1)Nc1cccc(C2=NCCN2)c1`, the T/C (dose: 18.75 mg/kg/injection, vehicle: carboxymethylcellulose (CMC)) is 85 % of control; the T/C (dose: 37.5 mg/kg/injection, vehicle: carboxymethylcellulose (CMC)) was 73 % of control; the T/C (dose: 75.0 mg/kg/injection, vehicle: carboxymethylcellulose (CMC)) was 73 % of control; the T/C (dose: 150.0 mg/kg/injection, vehicle: carboxymethylcellulose (CMC)) is 112 % of control.
For the molecule `CC(C)CN1CC(C)C(=O)N(c2ccccc2)C1=O` (stereo not given), the T/C was 61 % of control under setting [1]; 66 % of control under setting [2]; 73 % of control under setting [3]; 75 % of control under setting [4]; 68 % of control under setting [5].
As for `Nc1nc(-c2cccnc2)nc(N)c1N=O`, the T/C is 120 % of control under setting [2], 166 % of control under setting [3], 119 % of control under setting [4] and 81 % of control under setting [5].
With `Cc1ccc(CNc2ncnc3[nH]ncc23)cc1C`, the T/C was 95 % of control (dose: 25.0 mg/kg/injection, vehicle: methylcellulose (MC)); 72 % of control (dose: 50.0 mg/kg/injection, vehicle: methylcellulose (MC)); 64 % of control under setting [6]; 68 % of control under setting [7].
`COC(=O)C1C2CC3c4[nH]c5cc(OC)ccc5c4CCN3CC2CC(OC(=O)c2cc(OC)c(OC)c(OC)c2)C1OC` (stereo not given): the T/C is, setting by setting: (dose: 0.5 mg/kg/injection, vehicle: saline) 109 % of control; (dose: 2.0 mg/kg/injection, vehicle: saline) 101 % of control.
As to `CC1CN1P(=S)(N1CCCCC1)N1CC1C` (stereo not given), the T/C is, setting by setting: under setting [8], 51 % of control; under setting [9], 150 % of control; (dose: 56.0 mg/kg/injection, vehicle: carboxymethylcellulose (CMC)) 64 % of control; under setting [10], 121 % of control; (dose: 112.0 mg/kg/injection, vehicle: carboxymethylcellulose (CMC)) 19 % of control; under setting [11], 102 % of control.
In the case of `CC(C)C(Sc1nc(N)nc2nc[nH]c12)C(=O)O` (stereo not given), the T/C runs as follows: (dose: 23.7 mg/kg/injection, vehicle: carboxymethylcellulose (CMC)) 113 % of control; (dose: 47.5 mg/kg/injection, vehicle: carboxymethylcellulose (CMC)) 81 % of control; (dose: 95.0 mg/kg/injection, vehicle: carboxymethylcellulose (CMC)) 83 % of control; (dose: 190.0 mg/kg/injection, vehicle: carboxymethylcellulose (CMC)) 64 % of control.
As to `CSc1ncc(C)c(Nc2ccc(Br)cc2)n1`, the T/C by setting is: under setting [1], 111 % of control; under setting [2], 109 % of control.
On to `CCCOC(=O)C1(N)CCCC1`, for which the T/C by setting is: (dose: 12.5 mg/kg/injection, vehicle: carboxymethylcellulose (CMC)) 79 % of control; under setting [8], 44 % of control; under setting [9], 24 % of control; under setting [10], 7 % of control.
As to `COc1ccc(C[C@H](N)C(=O)NC2C(CO)OC(n3cnc4c(N(C)C)ncnc43)C2O)cc1` (stereo not given in full), the T/C by setting is: (dose: 9.94 mg/kg/injection, vehicle: carboxymethylcellulose (CMC)) 104 % of control; (dose: 13.25 mg/kg/injection, vehicle: carboxymethylcellulose (CMC)) 119 % of control; (dose: 17.06 mg/kg/injection, vehicle: carboxymethylcellulose (CMC)) 73 % of control; (dose: 19.88 mg/kg/injection, vehicle: carboxymethylcellulose (CMC)) 174 % of control; (dose: 23.0 mg/kg/injection, vehicle: carboxymethylcellulose (CMC)) 67 % of control; (dose: 26.5 mg/kg/injection, vehicle: carboxymethylcellulose (CMC)) 70 % of control. Besides, the T/C (dose: 31.8 mg/kg/injection, vehicle: carboxymethylcellulose (CMC)) is 47 % of control and 48 % of control; the T/C (dose: 34.13 mg/kg/injection, vehicle: carboxymethylcellulose (CMC)) was 57 % of control; the T/C (dose: 45.0 mg/kg/injection, vehicle: carboxymethylcellulose (CMC)) was 70 % of control; the T/C (dose: 68.25 mg/kg/injection, vehicle: carboxymethylcellulose (CMC)) is 50 % of control; the T/C (dose: 79.5 mg/kg/injection, vehicle: carboxymethylcellulose (CMC)) is 14 % of control; the T/C (dose: 90.0 mg/kg/injection, vehicle: carboxymethylcellulose (CMC)) was 51 % of control.
For `Cc1cnc(SCc2ccccc2)[nH]c1=O`, the T/C is 103 % of control under setting [1], 104 % of control under setting [2], 92 % of control under setting [4] and 77 % of control under setting [5].
For `CC1CN1P(=O)(Oc1ccccc1)N1CC1C` (stereo not given), the T/C is 89 % of control and 106 % of control (dose: 12.5 mg/kg/injection, vehicle: saline); 90 % of control and 78 % of control (dose: 25.0 mg/kg/injection, vehicle: saline); 42 % of control and 50 % of control (dose: 50.0 mg/kg/injection, vehicle: saline).
Consider `CC(=O)NC1=C(N2CC2)C(=O)C(NC(C)=O)=C(N2CC2)C1=O`, for which the T/C is 91 % of control (dose: 0.02 mg/kg/injection, vehicle: carboxymethylcellulose (CMC)); 71 % of control (dose: 0.02 mg/kg/injection, vehicle: methylcellulose (MC)); 65 % of control (dose: 0.03 mg/kg/injection, vehicle: carboxymethylcellulose (CMC)); 69 % of control (dose: 0.05 mg/kg/injection, vehicle: methylcellulose (MC)); 51 % of control (dose: 0.06 mg/kg/injection, vehicle: carboxymethylcellulose (CMC)); 50 % of control (dose: 0.1 mg/kg/injection, vehicle: methylcellulose (MC)). Further, for the setting “dose: 0.12 mg/kg/injection, vehicle: carboxymethylcellulose (CMC)”, the T/C was 21 % of control.
As to `CC(C)CCS(=O)(=O)OCCCCOS(=O)(=O)CCC(C)C`, the T/C was 67 % of control (dose: 75.0 mg/kg/injection, vehicle: methylcellulose (MC)); 34 % of control under setting [6]; 89 % of control (dose: 150.0 mg/kg/injection, vehicle: methylcellulose (MC)); 5 % of control (dose: 200.0 mg/kg/injection, vehicle: methylcellulose (MC)); 60 % of control under setting [7]; 56 % of control under setting [12]. For the same molecule, the T/C is 20 % of control (dose: 400.0 mg/kg/injection, vehicle: methylcellulose (MC)); 33 % of control (dose: 600.0 mg/kg/injection, vehicle: carboxymethylcellulose (CMC)); 75 % of control (dose: 600.0 mg/kg/injection, vehicle: methylcellulose (MC)).
With `Cc1nc(C(N)=O)nc2ccccc12`, the T/C (dose: 31.25 mg/kg/injection, vehicle: methylcellulose (MC)) was 102 % of control; the T/C under setting [9] was 99 % of control; the T/C under setting [10] was 80 % of control; the T/C under setting [11] was 58 % of control; the T/C under setting [12] is 32 % of control.
